The values that follow come from patent US20230304024A1, “Modulation of Gene Expression Via Transcription Factor-Chemically Induced Proximity (TF-CIP)” (The Board of Trustees of the Leland Stanford Junior …, priority 2020, published 2023).

“Also recorded” adds a separate entry of the source.

Experiment [1] has as its system HEK293 cells. As to the kind of experiment: Cell death / viability, PrestoBlue HS (resazurin) assay, HEK293. Type of experiment: cell-based. To be noted: FIG. 6 Panel C. As for the experimental part: (§1) Note that the higher concentrations lead to a reduction in activation of the reporter consistent with the “hook effect” characteristic of bifunctional molecules as they saturate both binding sites.(PMID: 8752278; PMID:21406691), in this case the BCL6 protein and the estrogen receptor. […] Panel C. […] Viability was measured using the PrestoBlue HS (resazurin) assay for viable cells (1:10 ratio in media and 1 h incubation).
(§2) These reporter systems and direct measures of cancer cell killing were used to assess the TF-CIP molecules made by rational design that are illustrated in FIG. 4. As shown in Panel A, addition of ER-TF-CIP6 activates GFP expression by the BCL reporter with an EC50 of about 1 to 10 micromolar. […] Note that the higher concentrations lead to a reduction in activation of the reporter consistent with the “hook effect” characteristic of bifunctional molecules as they saturate both binding sites. (PMID: 8752278; PMID:21406691), in this case the BCL6 protein and the estrogen receptor. […] Viability was measured using the PrestoBlue HS (resazurin) assay for viable cells (1:10 ratio in media and 1 h incubation).

In experiment [2] the test system is BCL6 reporter. As to the kind of experiment: BCL6 reporter GFP activation. Type of experiment: cell-based, human. To be noted: FIG. 6 Panel A.
From the text: FIGS. 5A to 5C illustrate the development of reporters for activation of cell death or pro-apoptotic pathways by the disinhibited BCL6 protein or the pro-apoptotic protein FOXO3A. FIG. 5A: The BCL6 reporter consists of an array of BCL6 binding sites taken from different pro-apoptotic genes including TP53, PUMA, BIM and others. These genes have the ability to kill cells when simply overexpressed (PMID:11463391). Ten base pairs on either side of the actual human BCL6 binding site are included to take advantage of the fact that transcriptional specificity is due to the concerted binding of proteins in an enhanceosome (PMID:9510247, 18206362).
as §1
FIGS. 5A to 5C provide examples of how one measures the effect of a TF-CIP to allow chemical optimization of linker and ligands. […] Thus, the reporter system is multiplexed and useful for defining and quantitating apoptotic responses in many different cell types. […]

In experiment [3] the test system is Karpas 422. As to the kind of experiment: Cell death / viability, PrestoBlue HS (resazurin) assay, Karpas 422. The format is cell-based. As to conditions: FIG. 6 Panel B, ER-positive cells with amplified/rearranged BCL6, compared with BI3812. The procedure:
as §1, §2
Background: The colour change of resazurin is a common sign of viable cells or microbes.

The subject of experiment [4] is ER-negative breast cancer cell lines. The experiment can be described thus: Cell death / viability, PrestoBlue HS (resazurin) assay, ER-negative breast cancer cell lines. Type of experiment: cell-based. To be noted: FIG. 6 Panels D and E; two ER-negative or low-ER breast cancer cell lines. The procedure: as §1, §2

On to `CNC(=O)COc1cc2cc(Nc3nc(N4CCC(C(=O)NCCOCCOCCNC(=O)CO/N=C5\CCC6C7CCc8cc(O)ccc8C7CC[C@]56C)CC4)ncc3Cl)cc(OC)c2n(C)c1=O` (stereo partly drawn) [ER-TF-CIP6], for which the “induction of cell death” value in experiment [1] is on record as “induces cell death”; in experiment [3], “more effectively than B13812”; in experiment [3] (listed as ER-TFCIP6), “more effectively than BI3812”. In experiment [2] (comparison with parent compound BI3812), the “potency in BCL6 reporter relative to BI3812” value is on record as “substantially lower concentration than that of the parent compound”. Also, the EC50 (usually the concentration at which the effect is half-maximal) in experiment [2] (Homo sapiens, read-out: EC50 of activation of GFP expression by the BCL reporter) fell in the range of 1 to 10 µM. The cell killing entry in experiment [4] was “does not kill; also recorded: are not killed”.
